The target in experiment [1] is hNurr1_RXRαFL (NURR1/RXRα heterodimer) (Homo sapiens, UniProt P19793+P43354). As to the kind of experiment: Transactivation assay in Cos-7 cells, NURR-1-Gal4 / RXRα, luciferase reporter. The format is cell-based. The settings on record: for Emax: COS-7, read-out: hNurr1_RXRαFL Eff (%), efficacy in % relative to the reference XCT0135908 at 2·10^−5 M (=100%); for EC50: Cos-7 cells, overnight incubation; for hNurr1_RXRαFL Eff (%): efficacy in % relative to the reference XCT0135908 at 2·10^−5 M (=100%). In short, it runs like this: (§1)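 Efficiency is given as a percentage of the induction produced by 2·10^−5 M XCT0135908 (100%), measured from heterodimer baseline. Read-out was luciferase after overnight exposure to compounds (10^−4–3·10^−10 M final) in Cos-7 cells transfected with NURR-1-Gal4, RXRα or RXRγ, and a Gal4 luciferase reporter.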
On the technique in general: In a reporter assay the amount or activity of a reporter protein is the signal.

The target of experiment [2] is hNurr1_RXRγFL (NURR1/RXRγ heterodimer) (Homo sapiens, UniProt P43354+P48443). The experiment can be described thus: Transactivation assay in Cos-7 cells, NURR-1-Gal4 / RXRγ, luciferase reporter. The format is cell-based. As to conditions: for Emax: COS-7, read-out: hNurr1_RXRγFL Eff (%), efficacy in % relative to the reference XCT0135908 at 2·10^−5 M (=100%); for EC50: Cos-7 cells, overnight incubation; for hNurr1_RXRγFL Eff (%): efficacy in % relative to the reference XCT0135908 at 2·10^−5 M (=100%). In short, it runs like this:
as §1

These results are taken from patent US20120232070A1, “Use of Indole Derivatives as Nurr-1 Activators for the Application Thereof as a Medicament for the Treatment of Parkinson's Disease” (Laboratoires Fournier SA, priority 2009, published 2012).

Chain of hNurr1_RXRγFL (NURR1/RXRγ heterodimer) (P43354 328-598): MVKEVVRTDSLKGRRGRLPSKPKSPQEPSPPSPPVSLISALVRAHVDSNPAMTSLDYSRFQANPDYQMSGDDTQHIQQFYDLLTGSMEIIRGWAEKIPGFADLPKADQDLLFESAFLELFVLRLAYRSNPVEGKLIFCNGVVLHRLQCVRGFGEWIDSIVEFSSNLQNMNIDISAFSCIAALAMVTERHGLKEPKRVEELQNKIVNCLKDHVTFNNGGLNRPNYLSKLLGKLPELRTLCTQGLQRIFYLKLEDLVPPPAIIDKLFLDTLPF
Chain of hNurr1_RXRγFL (NURR1/RXRγ heterodimer) (P48443 whole entry, the tested form may be a part): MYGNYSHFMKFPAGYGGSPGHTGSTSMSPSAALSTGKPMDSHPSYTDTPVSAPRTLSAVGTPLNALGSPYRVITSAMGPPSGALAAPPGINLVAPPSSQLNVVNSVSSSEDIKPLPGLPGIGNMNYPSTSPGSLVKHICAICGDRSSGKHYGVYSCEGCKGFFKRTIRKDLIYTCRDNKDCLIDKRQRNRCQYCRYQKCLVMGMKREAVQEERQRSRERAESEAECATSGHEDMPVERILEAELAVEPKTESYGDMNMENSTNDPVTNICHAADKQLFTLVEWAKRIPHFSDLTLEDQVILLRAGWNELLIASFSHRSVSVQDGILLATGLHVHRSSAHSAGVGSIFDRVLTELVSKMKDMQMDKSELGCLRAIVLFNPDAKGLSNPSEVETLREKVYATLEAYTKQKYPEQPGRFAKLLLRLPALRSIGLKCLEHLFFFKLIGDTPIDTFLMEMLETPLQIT
Chain of hNurr1_RXRαFL (NURR1/RXRα heterodimer) (P19793 whole entry, the tested form may be a part): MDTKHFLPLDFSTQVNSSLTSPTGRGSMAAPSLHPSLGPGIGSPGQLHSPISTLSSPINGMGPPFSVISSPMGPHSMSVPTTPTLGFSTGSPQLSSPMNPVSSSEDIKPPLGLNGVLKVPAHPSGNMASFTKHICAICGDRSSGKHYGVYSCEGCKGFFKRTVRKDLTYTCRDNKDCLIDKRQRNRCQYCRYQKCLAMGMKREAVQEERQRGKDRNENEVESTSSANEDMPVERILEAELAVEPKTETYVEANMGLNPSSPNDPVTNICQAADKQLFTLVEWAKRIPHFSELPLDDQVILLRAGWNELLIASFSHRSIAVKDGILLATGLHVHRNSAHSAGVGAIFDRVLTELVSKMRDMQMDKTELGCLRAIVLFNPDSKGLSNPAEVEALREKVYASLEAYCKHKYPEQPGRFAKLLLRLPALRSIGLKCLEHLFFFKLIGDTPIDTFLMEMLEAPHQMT
Chain of hNurr1_RXRαFL (NURR1/RXRα heterodimer) (P43354 328-598): as the sequence (P43354 328-598) above

Consider `O=C(O)c1ccc(Cc2cc3cc(Cl)ccc3n2S(=O)(=O)c2ccc3c(c2)OCO3)cc1` [Example 174, 4-[[1-(1.3-benzodioxol-5-ylsulfonyl)-5-chloro-1H-indol-2-yl]methyl]benzoic acid], for which the values for the Emax in experiment [1] and in experiment [2] were 47% and 37%, respectively. Further, the concentration for a half-maximal effect (EC50) (as a rule, the concentration giving half of the maximal effect) in experiment [1] came to 0.593 µM; in experiment [2], 0.813 µM.

With `O=C(O)c1ccc(Cc2cc3cc(Cl)ccc3n2S(=O)(=O)c2ccc(Oc3ccccc3)nc2)cc1` [Example 175, 4-[[5-chloro-1-[(6-phenoxy-3-pyridinyl)sulfonyl]-1H-indol-2-yl]methyl]benzoic acid], in experiment [1], the Emax amounted to 38% and the concentration for a half-maximal effect (EC50) worked out at 0.331 µM. In addition, in experiment [2], the Emax is 14% and the EC50 was above 10 µM.

As to `CCS(=O)(=O)n1c(Cc2ccc(C(=O)O)cc2)cc2cc(Cl)ccc21` [Example 176, 4-[[5-chloro-1-(ethylsulfonyl)-1H-indol-2-yl]methyl]benzoic acid], in experiment [1], the Emax amounted to 33% and the EC50 came out at 3.39 µM. Also, in experiment [2], the Emax is 21% and the half-maximal effective concentration (EC50) was above 10 µM.

Regarding `O=C(O)c1ccc(Cc2cc3cc(Cl)ccc3n2S(=O)(=O)c2cc3ccccc3o2)cc1` [Example 177, 4-[[1-[benzofuran-2-sulfonyl]-5-(chloro)-1H-indol-2-yl]methyl]benzoic acid], in experiment [1], the Emax was 39% and the EC50 was above 10 µM. Besides, in experiment [2], the Emax is 17% and the EC50 was above 10 µM.

In the case of `O=C(O)c1ccc(Cc2cc3cc(Cl)ccc3n2S(=O)(=O)c2ccc3c(c2)OCCCO3)cc1` [Example 178], the figures for the Emax in experiment [1] and in experiment [2] were 45% and 36%, respectively. Further, the EC50 in experiment [1] stood at 1.03 µM; in experiment [2], 1.2 µM.

Turning to `O=C(O)c1ccc(Cc2cc3cc(Cl)ccc3n2S(=O)(=O)c2ccc(-c3ccc(F)cc3)cc2)cc1` [Example 179, 4-[[1-[4′-fluoro-biphenyl-4-sulfonyl]-5-(chloro)-1H-indol-2-yl]methyl]benzoic acid], in experiment [1], the Emax was determined as 62% and the EC50 came out at 0.331 µM. For the same molecule, in experiment [2], the Emax was found to be 26% and the EC50 is above 10 µM.

For the molecule `CS(=O)(=O)n1c(Cc2ccc(C(=O)O)cc2)cc2cc(Cl)ccc21` [Example 181, 4-[[5-chloro-1-(methylsulfonyl)-1H-indol-2-yl]methyl]benzoic acid], the results for the Emax in experiment [1] and in experiment [2] were 111% and 152%, respectively. For the same molecule, the EC50 stood at 1.36 µM in experiment [1] and 4.07 µM in experiment [2].

In the case of `COC(=O)c1ccc(Cc2cc3cc(Cl)ccc3n2S(=O)(=O)c2ccc3c(c2)C(C)(C)CO3)cc1` [Example 182], in experiment [1], the EC50 came to 0.055 µM and the “hNurr1_RXRαFL Eff (%)” value was 83%. In addition, in experiment [2], it took 0.154 µM to reach a half-maximal effect (EC50) and the “hNurr1_RXRγFL Eff (%)” value is 85%.

As to `CC1(C)COc2ccc(S(=O)(=O)n3c(Cc4ccc(C(=O)O)cc4)cc4cc(Cl)ccc43)cc21` [Example 183], in experiment [1], the concentration giving a half-maximal response (EC50) was 0.047 µM and the “hNurr1_RXRαFL Eff (%)” value worked out at 80%. Also, in experiment [2], a half-maximal effect (EC50) was put at 0.095 µM and the “hNurr1_RXRγFL Eff (%)” value came to 91%.

In the case of `Cc1c(Cc2cccc(C(=O)O)c2)n(S(=O)(=O)c2cccc(C(C)(C)C)c2)c2ccc(C(F)(F)F)cc12` [Example 186, 3-[[1-[[3-(1,1-dimethylethyl)phenyl]sulfonyl]-3-methyl-5-(trifluoromethyl)-1H-indol-2-yl]methyl]-benzoic acid], in experiment [1], the Emax stood at 93% and the 50% effective concentration (EC50) was determined as 0.124 µM. Moreover, in experiment [2], the Emax is 68% and the midpoint of the response, the EC50, lay at 0.288 µM.

As to `Cc1c(Cc2ccc(C(=O)O)cc2)n(S(=O)(=O)c2cccc(C(C)(C)C)c2)c2ccc(C(F)(F)F)cc12` [Example 189, 4-[[1-[[3-(1,1-dimethylethyl)phenyl]sulfonyl]-3-methyl-5-(trifluoromethyl)-1H-indol-2-yl]methyl]-benzoic acid], the values for the Emax in experiment [1] and in experiment [2] were 83% and 90%, respectively. Further, the concentration giving a half-maximal response (EC50) in experiment [1] is 0.12 µM; in experiment [2], 0.263 µM.

Turning to `COC(=O)c1ccc(Cc2cc3cc(C(F)(F)F)ccc3n2S(=O)(=O)c2cccc(C(C)(C)C)c2)s1` [Example 190, 5-[[1-[[3-(1,1-dimethylethyl)-phenyl]sulfonyl]-5-trifluoromethyl-1H-indol-2-yl]-methyl]-thiophene-2-carboxylic acid, methyl ester], in experiment [1], the Emax worked out at 97% and the half-maximal effective concentration (EC50) is 0.0002 µM. Besides, in experiment [2], the Emax came to 107% and the EC50 is 0.013 µM.

As for `COC(=O)c1cc(Cc2cc3cc(C(F)(F)F)ccc3n2S(=O)(=O)c2cccc(C(C)(C)C)c2)cn1C` [Example 192, 4-{[1-[[3-(1,1-dimethylethyl)-phenyl]sulfonyl]-5-trifluoromethyl-1H-indol-2-yl]-methyl}-1-methyl-1H-pyrrol-2-yl-carboxylic acid, methyl ester], in experiment [1], the Emax amounted to 85% and the EC50 was 1.12 µM. Besides, in experiment [2], the Emax is 58% and the EC50 was above 10 µM.

For the molecule `COC(=O)c1ccc(Cc2cc3ccccc3n2S(=O)(=O)c2cccc(C(C)(C)C)c2)cc1` [Example 194, 4-[[1-[[3-(1,1-dimethylethyl)phenyl]sulfonyl]-1H-indol-2-yl]methyl]-benzoic acid, methyl ester], in experiment [1], the Emax turned out to be 42% and the EC50 is 0.344 µM. In experiment [2], the Emax worked out at 36% and the concentration for a half-maximal effect (EC50) is 0.316 µM.

Regarding `CC(C)(C)c1cccc(S(=O)(=O)n2c(Cc3ccc(C(=O)O)cc3)cc3ccccc32)c1` [Example 195, 4-[[1-[[3-(1,1-dimethylethyl)phenyl]sulfonyl]-1H-indol-2-yl]methyl]-benzoic acid], in experiment [1], the Emax was determined as 57% and a half-maximal effect (EC50) was put at 0.629 µM. Further, in experiment [2], the Emax was 56% and a half-maximal response (EC50) required 1.17 µM.

With `Cc1cc(Cc2cc3cc(C(F)(F)F)ccc3n2S(=O)(=O)c2cccc(C(C)(C)C)c2)c(F)cc1C(=O)O` [Example 196, 4-[[1-[[3-(1,1-dimethylethyl)phenyl]sulfonyl]-5-trifluoromethyl-1H-indol-2-yl]methyl]-5-fluoro-2-methyl-benzoic acid], the Emax in experiment [1] stood at 90%; in experiment [2], 91%. For the same molecule, the EC50 in experiment [1] was 0.24 µM; in experiment [2], 0.479 µM.

As to `Cc1cc(C(=O)O)ccc1Cc1cc2cc(C(F)(F)F)ccc2n1S(=O)(=O)c1cccc(C(C)(C)C)c1` [Example 197, 4-[[1-[[3-(1,1-dimethylethyl)phenyl]sulfonyl]-5-trifluoromethyl-1H-indol-2-yl]methyl]-3-methyl-benzoic acid], in experiment [1], the Emax worked out at 68% and the EC50 was determined as 0.278 µM. Further, in experiment [2], the Emax stood at 52% and the EC50 stood at 0.592 µM.

With `CC(C)(C)c1cccc(S(=O)(=O)n2c(Cc3ccc(S(N)(=O)=O)cc3)cc3cc(C(F)(F)F)ccc32)c1` [Example 198, 4-[[1-[[3-(1,1-dimethylethyl)-phenyl]sulfonyl]-5-trifluoromethyl-1H-indol-2-yl]methyl]-benzenesulfonamide], in experiment [1], the Emax is 84% and the 50% effective concentration (EC50) came out at 7.94 µM. For the same molecule, in experiment [2], the Emax stood at 86% and the EC50 is above 10 µM.

Consider `CC(C)(C)c1cccc(S(=O)(=O)n2c(Cc3cncc(C(=O)O)c3)cc3cc(C(F)(F)F)ccc32)c1` [Example 204, 3-[[1-[[3-(1,1-dimethylethyl)-phenyl]sulfonyl]-5-trifluoromethyl-1H-indol-2-yl]methyl]-5-pyridine carboxylic acid], for which, in experiment [1], the Emax stood at 102% and a half-maximal effect (EC50) was put at 0.107 µM. Also, in experiment [2], the Emax came to 93% and the EC50 amounted to 0.195 µM.

`CC(C)(C)c1cccc(S(=O)(=O)n2c(Cc3ccc(C(=O)O)c(Cl)c3)cc3cc(C(F)(F)F)ccc32)c1` [Example 206, 4-[[1-[[3-(1,1-dimethylethyl)-phenyl]sulfonyl]-5-trifluoromethyl-1H-indol-2-yl]methyl]-2-chlorobenzoic acid]: in experiment [1], the Emax was determined as 71% and the EC50 stood at 0.174 µM. In addition, in experiment [2], the Emax was found to be 85% and it took 0.363 µM to reach a half-maximal effect (EC50).

`CC(C)c1ccc(S(=O)(=O)n2c(Cc3ccc(C(=O)O)c(Cl)c3)cc3cc(C(F)(F)F)ccc32)cc1` [Example 209, 4-[[1-[[4-(1-methylethyl)-phenyl]sulfonyl]-5-trifluoromethyl-1H-indol-2-yl]methyl]-2-chlorobenzoic acid]: in experiment [1], the Emax came out at 69% and the EC50 worked out at 0.333 µM. For the same molecule, in experiment [2], the Emax amounted to 51% and the half-maximal effective concentration (EC50) came to 0.741 µM.

With `CC(C)(C)c1cccc(S(=O)(=O)n2c(Cc3ccc(F)c(C(=O)O)c3)cc3cc(C(F)(F)F)ccc32)c1` [Example 210, 3-[[1-[[3-(1,1-dimethylethyl)-phenyl]sulfonyl]-5-trifluoromethyl-1H-indol-2-yl]methyl]-6-fluorobenzoic acid], the values for the Emax in experiment [1] and in experiment [2] were 70% and 68%, respectively. The results for the EC50 in experiment [1] and in experiment [2] were 0.069 µM and 0.081 µM, respectively.

In the case of `CN1CCOc2ccc(S(=O)(=O)n3c(Cc4ccc(C(=O)O)c(Cl)c4)cc4cc(C(F)(F)F)ccc43)cc21` [Example 211, 4-[[1-[[4-methyl-3,4-dihydro-2H-benzo[1,4]oxazin-6-yl]-sulfonyl]-5-trifluoromethyl-1H-indol-2-yl]methyl]-2-chlorobenzoic acid], in experiment [1], the Emax was 83% and the EC50 came to 0.385 µM. In experiment [2], the Emax amounted to 56% and the half-maximal effective concentration (EC50) was found to be 0.465 µM.
